“Also recorded” adds a separate entry of the source.
Tests used:
[1] = test system: mouse NEC model; test: Experimental NEC in newborn mice (Example 1); type: in vivo
[2] = test system: TLR4; test: TLR4 signaling and Tlr4 expression in newborn mouse ileum in vivo (endotoxemia model, LPS)
Method: Endotoxemia was induced in neonatal mouse pups (p11) by administering 5 mg/kg lipopolysaccharides (LPS) via intraperitoneal injection, and ileal samples were harvested 6 hours after LPS treatments. […] I3C and A18 were administered to the pregnant mother daily until the offspring were studied further for experimental NEC or endotoxemia as above. […] The mRNA quantification was performed on the Bio-Rad CFX96 Real-Time System (Bio-Rad) using iTaqTM universal SYBR® Green supermix (Bio-Rad) and the primers listed in Table 1. The relative mRNA expression levels were normalized against the expression of the housekeeping gene ribosomal protein lateral stalk subunit P0 (Rplp0). For microRNA isolation, freshly harvested, snap-frozen ileal tissue was subjected to total RNA isolation using the RNeasy plus universal mini kit (Qiagen) and miRNA was quantified using miScript PCR starter kit (Qiagen) following the manufacturer's protocols. The relative miRNA expression levels were normalized against the expression of housekeeping miRNA miR-191.

[3] = pups, maternal I3C during pregnancy

Compound: OCc1c[nH]c2ccccc12 [I3C, indole-3-carbinol]
- NEC severity ([1]; Ahr^ΔIEC mice, I3C 25 mg/kg/day during NEC induction): relatively scant protective effect
- NEC severity ([1]; Ahr^Δlys mice, I3C 25 mg/kg/day during NEC induction): moderate protective effect; also recorded: protection against NEC development
- NEC severity ([1]; Ahr^−/− mice, oral to pups during NEC induction: I3C 25 mg/kg/day, A18 300 mg/kg/day, or human breast milk 5% in formula): no protective effect
- NEC severity ([1]; Il22^−/− mice, I3C 25 mg/kg/day for 4 days): reduced NEC severity
- severity of experimental NEC in the pups ([1]; oral I3C to the mother during pregnancy, 25 mg/kg body weight/day): significantly reduced the severity of experimental NEC
- expression of 116 in the intestinal epithelium (NEC) [1, 3]: reduced expression of 116
- histological injury (terminal ileum, NEC) [1, 3]: reduced histological injury
- intestinal epithelial apoptosis (TUNEL, NEC) [1, 3]: reduced intestinal epithelial apoptosis
- NEC severity ([1]; wild-type mice, oral to pups during NEC induction: I3C 25 mg/kg/day, A18 300 mg/kg/day, or human breast milk 5% in formula): significantly reduced the severity of NEC; also recorded: protection against NEC development
- TLR4 signaling (LPS-induced Tnfa) in the intestine ([2]; Ahr^−/− mice, I3C): did not reduce
- Tlr4 expression in the intestinal mucosa ([2]; Ahr^−/− mice, I3C): did not reduce
- induction of the proinflammatory cytokine 116 in the neonatal (p11) mouse intestine in response to LPS ([2]; maternal administration of I3C, vs pups from non I3C-treated mothers): significantly reduced the induction of the proinflammatory cytokine 116
- Tlr4 expression in the intestinal mucosa / newborn ileum ([2]; wild-type mice, fed I3C or A18): reduced expression of Tlr4
- LPS-induced Tnfa expression (TLR4 signaling) in the intestine ([2]; wild-type p11 mice fed I3C): reduced LPS-induced Tnfa expression

— patent US20230357261A1, “ARYL HYDROCARBON RECEPTOR LIGANDS AND THEIR ANALOGUES FOR THE PREVENTION AND TREATMENT OF INFLAMMATORY DISORDERS” (The Johns Hopkins University, priority 2020, published 2023)
